Data published in patent publication US20260226493A1, “HERBICIDE RESISTANT PLANTS” (SYNGENTA CROP PROTECTION AG, priority 2023, published 2026).

Key:
Test in all cases: BIO3-BIO1 mutant enzyme activity in the presence of herbicide, percentage inhibition (fluorometric DAPA assay)
Type in all cases: biochemical
Settings in all cases: read-out: percentage inhibition
[1] = biological target: T1, Arabidopsis thaliana BIO3-BIO1 (BioDA) mutants (Arabidopsis thaliana, UniProt B0F481, Y511C)
T1 construct: with the predicted N-terminal mitochondrial transit peptide removed; 6xHis-tag (N); thrombin cleavage site (N); made in house; host or cells: E. coli BL21 (DE3) bioA
Method in brief: (§1)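 His-tagged Arabidopsis BIO3-BIO1 mutants, expressed in E. coli and purified by IMAC and SEC, were preincubated at 50 nM with herbicide for 10 min at 20 °C in EPPS pH 8.6 with pyridoxal phosphate. Reaction with 100 μM spermidine and 20 μM KAPA ran 75 min at 20 °C; DAPA was derivatised with o-phthalaldehyde and read at ex 410/em 470 nm. […].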

[2] = biological target: T2, Arabidopsis thaliana BIO3-BIO1 (BioDA) mutants (Arabidopsis thaliana, UniProt B0F481, C388T)
T2 construct: with the predicted N-terminal mitochondrial transit peptide removed; 6xHis-tag (N); thrombin cleavage site (N); made in house; host or cells: E. coli BL21 (DE3) bioA
Method in brief: as §1

[3] = biological target: T3, Arabidopsis thaliana BIO3-BIO1 (BioDA) mutants (Arabidopsis thaliana, UniProt B0F481, S509G)
T3 construct: with the predicted N-terminal mitochondrial transit peptide removed; 6xHis-tag (N); thrombin cleavage site (N); made in house; host or cells: E. coli BL21 (DE3) bioA
Method in brief: as §1

[4] = biological target: T4, Arabidopsis thaliana BIO3-BIO1 (BioDA) mutants (Arabidopsis thaliana, UniProt B0F481, P510E)
T4 construct: with the predicted N-terminal mitochondrial transit peptide removed; 6xHis-tag (N); thrombin cleavage site (N); made in house; host or cells: E. coli BL21 (DE3) bioA
Method in brief: as §1

[5] = biological target: T5, Arabidopsis thaliana BIO3-BIO1 (BioDA) mutants (Arabidopsis thaliana, UniProt B0F481, S509V)
T5 construct: with the predicted N-terminal mitochondrial transit peptide removed; 6xHis-tag (N); thrombin cleavage site (N); made in house; host or cells: E. coli BL21 (DE3) bioA
Method in brief: as §1

[6] = biological target: T6, Arabidopsis thaliana BIO3-BIO1 (BioDA) mutants (Arabidopsis thaliana, UniProt B0F481, P508T)
T6 construct: with the predicted N-terminal mitochondrial transit peptide removed; 6xHis-tag (N); thrombin cleavage site (N); made in house; host or cells: E. coli BL21 (DE3) bioA
Method in brief: as §1

[7] = biological target: T7, Arabidopsis thaliana BIO3-BIO1 (BioDA) mutants (Arabidopsis thaliana, UniProt B0F481, Y511F)
T7 construct: with the predicted N-terminal mitochondrial transit peptide removed; 6xHis-tag (N); thrombin cleavage site (N); made in house; host or cells: E. coli BL21 (DE3) bioA
Method in brief: as §1

[8] = biological target: T8, Arabidopsis thaliana BIO3-BIO1 (BioDA) mutants (Arabidopsis thaliana, UniProt B0F481, G513P)
T8 construct: with the predicted N-terminal mitochondrial transit peptide removed; 6xHis-tag (N); thrombin cleavage site (N); made in house; host or cells: E. coli BL21 (DE3) bioA
Method in brief: as §1

[9] = biological target: T9, Arabidopsis thaliana BIO3-BIO1 (BioDA) mutants (Arabidopsis thaliana, UniProt B0F481, Y511Q)
T9 construct: with the predicted N-terminal mitochondrial transit peptide removed; 6xHis-tag (N); thrombin cleavage site (N); made in house; host or cells: E. coli BL21 (DE3) bioA
Method in brief: as §1

[10] = biological target: T10, Arabidopsis thaliana BIO3-BIO1 (BioDA) mutants (Arabidopsis thaliana, UniProt B0F481, A609W)
T10 construct: with the predicted N-terminal mitochondrial transit peptide removed; 6xHis-tag (N); thrombin cleavage site (N); made in house; host or cells: E. coli BL21 (DE3) bioA
Method in brief: as §1

[11] = biological target: T11, Arabidopsis thaliana BIO3-BIO1 (BioDA) mutants (Arabidopsis thaliana, UniProt B0F481, S509Q)
T11 construct: with the predicted N-terminal mitochondrial transit peptide removed; 6xHis-tag (N); thrombin cleavage site (N); made in house; host or cells: E. coli BL21 (DE3) bioA
Method in brief: as §1

[12] = biological target: T12, Arabidopsis thaliana BIO3-BIO1 (BioDA) mutants (Arabidopsis thaliana, UniProt B0F481, T512V)
T12 construct: with the predicted N-terminal mitochondrial transit peptide removed; 6xHis-tag (N); thrombin cleavage site (N); made in house; host or cells: E. coli BL21 (DE3) bioA
Method in brief: as §1

T12 sequence (B0F481 23-833 T512V): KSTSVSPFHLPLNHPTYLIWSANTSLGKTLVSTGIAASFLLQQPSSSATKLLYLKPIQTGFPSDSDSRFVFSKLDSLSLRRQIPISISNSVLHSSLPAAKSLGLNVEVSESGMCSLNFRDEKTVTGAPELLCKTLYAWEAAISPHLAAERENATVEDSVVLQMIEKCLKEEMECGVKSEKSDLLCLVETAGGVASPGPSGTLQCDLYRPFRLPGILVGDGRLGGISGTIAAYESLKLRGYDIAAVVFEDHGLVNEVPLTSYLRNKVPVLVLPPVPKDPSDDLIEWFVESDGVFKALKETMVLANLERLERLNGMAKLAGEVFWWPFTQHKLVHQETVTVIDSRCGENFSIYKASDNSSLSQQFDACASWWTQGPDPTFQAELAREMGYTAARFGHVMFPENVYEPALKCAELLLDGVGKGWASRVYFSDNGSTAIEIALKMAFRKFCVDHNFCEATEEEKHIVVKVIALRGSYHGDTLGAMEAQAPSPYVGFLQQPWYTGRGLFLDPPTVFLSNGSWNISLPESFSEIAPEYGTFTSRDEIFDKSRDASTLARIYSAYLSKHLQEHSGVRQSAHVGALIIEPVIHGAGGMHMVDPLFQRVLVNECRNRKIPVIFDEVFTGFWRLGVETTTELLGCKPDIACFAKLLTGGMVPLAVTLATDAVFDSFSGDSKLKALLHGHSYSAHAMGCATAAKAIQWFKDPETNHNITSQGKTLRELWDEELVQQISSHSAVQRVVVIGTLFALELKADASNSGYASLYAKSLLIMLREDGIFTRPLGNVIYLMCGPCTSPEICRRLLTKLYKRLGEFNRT
T9 sequence (B0F481 23-833 Y511Q): as the sequence (B0F481 23-833 T512V) above, with Y489Q, V490T counted along it
T7 sequence (B0F481 23-833 Y511F): as the sequence (B0F481 23-833 T512V) above, with Y489F, V490T counted along it
T2 sequence (B0F481 23-833 C388T): as the sequence (B0F481 23-833 T512V) above, with C366T, V490T counted along it
T3 sequence (B0F481 23-833 S509G): as the sequence (B0F481 23-833 T512V) above, with S487G, V490T counted along it
T4 sequence (B0F481 23-833 P510E): as the sequence (B0F481 23-833 T512V) above, with P488E, V490T counted along it
T1 sequence (B0F481 23-833 Y511C): as the sequence (B0F481 23-833 T512V) above, with Y489C, V490T counted along it
T10 sequence (B0F481 23-833 A609W): as the sequence (B0F481 23-833 T512V) above, with V490T, A587W counted along it
T6 sequence (B0F481 23-833 P508T): as the sequence (B0F481 23-833 T512V) above, with P486T, V490T counted along it
T11 sequence (B0F481 23-833 S509Q): as the sequence (B0F481 23-833 T512V) above, with S487Q, V490T counted along it
T8 sequence (B0F481 23-833 G513P): as the sequence (B0F481 23-833 T512V) above, with V490T, G491P counted along it
T5 sequence (B0F481 23-833 S509V): as the sequence (B0F481 23-833 T512V) above, with S487V, V490T counted along it

Structure (SMILES)	inhibition at 1 µM [1] [%]	inhibition at 1 µM [2] [%]	inhibition at 1 µM [3] [%]	inhibition at 1 µM [4] [%]	inhibition at 1 µM [5] [%]	inhibition at 1 µM [6] [%]	inhibition at 1 µM [7] [%]	inhibition at 1 µM [8] [%]	inhibition at 1 µM [9] [%]	inhibition at 1 µM [10] [%]	inhibition at 1 µM [11] [%]	inhibition at 1 µM [12] [%]	inhibition at 0.2 µM [1] [%]	inhibition at 5 µM [1] [%]	inhibition at 0.2 µM [2] [%]	inhibition at 5 µM [2] [%]	inhibition at 0.2 µM [3] [%]	inhibition at 5 µM [3] [%]	inhibition at 0.2 µM [4] [%]	inhibition at 5 µM [4] [%]	further results
CCOC(=O)c1nn(-c2ccc3c(c2)OC(F)(F)C(F)(F)O3)c2cccc(C(C)=O)c2c1=O [Compound A, ethyl 5-acetyl-4-oxo-1-(2,2,3,3-tetrafluoro-1,4-benzodioxin-6-yl)cinnoline-3-carboxylate]	0	31	36	26	6	55	79	63	21	34	8	58									
CCn1c(C)c(-c2ccc(F)cc2F)c(=O)c(C(=O)O)c1-c1ccc(Cl)c(Cl)c1 [Compound C, 2-(3,4-dichlorophenyl)-5-(2,4-difluorophenyl)-1-ethyl-6-methyl-4-oxo-pyridine-3-carboxylic acid]	86	78	53	38	30	54	67	95	97	33	82	81	33	98	49	95	20	75	8	74	inhibition at 0.2 µM [5]: 17%; inhibition at 5 µM [5]: 94%; inhibition at 0.2 µM [6]: 23%; inhibition at 5 µM [6]: 82%; inhibition at 0.2 µM [7]: 44%; inhibition at 5 µM [7]: 90%; inhibition at 0.2 µM [8]: 52%; inhibition at 5 µM [8]: 99%; inhibition at 0.2 µM [9]: 78%; inhibition at 5 µM [9]: 98%; inhibition at 0.2 µM [10]: 21%; inhibition at 5 µM [10]: 38%; inhibition at 0.2 µM [11]: 23%; inhibition at 5 µM [11]: 99%; inhibition at 0.2 µM [12]: 51%; inhibition at 5 µM [12]: 96%
CCn1c(Cn2ccc(C(F)(F)F)n2)cc(=O)c(C(=O)O)c1-c1ccc(Cl)c(Cl)c1 [Compound L, 2-(3,4-dichlorophenyl)-1-ethyl-4-oxo-6-[[3-(trifluoromethyl)pyrazol-1-yl]methyl]pyridine-3-carboxylic acid]																					inhibition at 0.01 µM [2]: 19%; inhibition at 0.075 µM [2]: 58%; inhibition at 0.5 µM [2]: 92%; inhibition at 0.01 µM [4]: 0%; inhibition at 0.075 µM [4]: 11%; inhibition at 0.5 µM [4]: 59%; inhibition at 0.01 µM [6]: 25%; inhibition at 0.075 µM [6]: 22%; inhibition at 0.5 µM [6]: 85%; inhibition at 0.01 µM [8]: 5%; inhibition at 0.075 µM [8]: 46%; inhibition at 0.5 µM [8]: 86%; inhibition at 0.01 µM [10]: 35%; inhibition at 0.075 µM [10]: 46%; inhibition at 0.5 µM [10]: 66%
CCn1c(-c2ccc(Cl)c(Cl)c2)c(C(=O)O)c(=O)c2cc(F)ccc21 [Compound M, 2-(3,4-dichlorophenyl)-1-ethyl-6-fluoro-4-oxo-quinoline-3-carboxylic acid]	67	78	47	25	26	44	57	83	87	31	76	77	16	92	48	95	28	71	0	61	inhibition at 0.2 µM [5]: 22%; inhibition at 5 µM [5]: 88%; inhibition at 0.2 µM [6]: 20%; inhibition at 5 µM [6]: 78%; inhibition at 0.2 µM [7]: 24%; inhibition at 5 µM [7]: 82%; inhibition at 0.2 µM [8]: 52%; inhibition at 5 µM [8]: 97%; inhibition at 0.2 µM [9]: 54%; inhibition at 5 µM [9]: 95%; inhibition at 0.2 µM [10]: 24%; inhibition at 5 µM [10]: 52%; inhibition at 0.2 µM [11]: 23%; inhibition at 5 µM [11]: 96%; inhibition at 0.2 µM [12]: 57%; inhibition at 5 µM [12]: 94%
